The record followed here is paper PMC6905855, “Agonist-specific voltage-dependent gating of lysosomal two-pore Na^+ channels” (eLife, 2019).

For test [1], the target named is T1, surface-expressing mutant TPC2 channel (TPC2^LL/AA) in HEK293 cells (Homo sapiens, UniProt Q8NHX9, L11A/L12A).
T1 construct: expressed in transfected cells; host or cells: HEK293
The test is described as follows: Whole-cell recordings of ITPC2-LL/AA. The format is cell-based. Particulars: preliminary whole-cell test of positive LOPAC hits; HEK293 cells overexpressing TPC2 LL/AA; voltage ramp -140 to +100 mV (200 ms); measured at -140 mV. From the text: We therefore characterized the responses of TPC2 channels to TCAs in detail using electrophysiological methods. We first performed whole-cell recordings in HEK293 cells that were transfected with surface-expressed TPC2 mutant channels (TPC2-L^11L^12-AA; abbreviated as TPC2^LL/AA hereafter).
All TPC1 and TPC2 mutants were generated with a site-directed mutagenesis kit (Qiagen) using EGFP- human TPC1 and TPC2 as the templates. All constructs were confirmed by DNA sequencing.
Cells were transfected with Lipofectamine 2000 (Invitrogen). After culture media were refreshed 18–24 hr post-transfection, cells were used for the electrophysiological assays 24–36 hr post-transfection.
All bath solutions were applied via a perfusion system that allowed complete solution exchange within a few seconds. […] Whole-cell currents were digitized at 10 kHz and filtered at 2 kHz.

For test [2], the target named is T2, hTPC2 (Homo sapiens, UniProt Q8NHX9).
T2 construct: expressed in transfected cells; host or cells: Cos1 and HEK293
T2 sequence (Q8NHX9 whole entry): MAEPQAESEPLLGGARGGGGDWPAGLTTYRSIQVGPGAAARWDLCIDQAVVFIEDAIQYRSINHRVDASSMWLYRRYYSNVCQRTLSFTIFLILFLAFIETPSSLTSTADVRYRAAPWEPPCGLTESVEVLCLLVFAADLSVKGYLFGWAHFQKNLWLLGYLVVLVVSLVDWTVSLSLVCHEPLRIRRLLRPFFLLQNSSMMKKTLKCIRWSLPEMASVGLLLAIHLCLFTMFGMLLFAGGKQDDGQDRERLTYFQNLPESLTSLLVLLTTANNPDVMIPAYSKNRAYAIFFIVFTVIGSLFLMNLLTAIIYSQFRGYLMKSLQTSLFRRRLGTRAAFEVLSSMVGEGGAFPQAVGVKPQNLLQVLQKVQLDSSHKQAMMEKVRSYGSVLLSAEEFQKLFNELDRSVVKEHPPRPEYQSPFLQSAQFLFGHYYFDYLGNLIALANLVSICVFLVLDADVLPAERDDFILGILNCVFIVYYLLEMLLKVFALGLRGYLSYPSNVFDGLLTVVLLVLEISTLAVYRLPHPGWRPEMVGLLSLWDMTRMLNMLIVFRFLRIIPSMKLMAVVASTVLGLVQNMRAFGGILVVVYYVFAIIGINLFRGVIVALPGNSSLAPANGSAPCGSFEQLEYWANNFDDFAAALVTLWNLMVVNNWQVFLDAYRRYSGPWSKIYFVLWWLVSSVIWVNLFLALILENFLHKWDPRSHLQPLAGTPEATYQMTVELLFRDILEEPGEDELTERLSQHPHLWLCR
Description: Whole-endolysosome recordings of ITPC2. To be noted: 100uM; for Whole endo-lysosomal TPC2 current activated by LyNa-VAs, mean: mean of n tests. The format is biochemical. Further details: Whole endo-lysosomal TPC2 current activated by LyNa-VAs, Test 3 / Whole endo-lysosomal TPC2 current activated by LyNa-VAs, mean: unit not given here.

Structures can show the parent of a compound that is named as a salt.

T1 sequence (Q8NHX9 whole entry L11A/L12A): as the sequence (Q8NHX9 whole entry) above, with L11A, L12A counted along it

For `C[N+](C)(C)CC#CCN1CCCC1=O`, the I-TPC2 entry in test [1] is given as “No activation”.

With `CN(C)CCC[C@@]1(c2ccc(F)cc2)OCc2cc(C#N)ccc21` [Escitalopram], the I-TPC2 result in test [1] is reported as “No activation”.

On to `CN(C)CCCN1c2ccccc2Sc2ccc(C(F)(F)F)cc21` [Triflupromazine hydrochloride], for which, in test [1], the I-TPC2 is listed as >1500 pA.

Take `CN(C)CCCN1c2ccccc2Sc2ccc(Cl)cc21` [Chlorpromazine hydrochloride]: the I-TPC2 in test [1] was >1500 pA.

Consider `CC(=O)OC(C)C[N+](C)(C)C` (centres unmarked) [Methacholine chloride], for which the I-TPC2 result in test [1] is “No activation”.

With `O=C(Nc1ccc([N+](=O)[O-])cc1Cl)c1cc(Cl)ccc1O` [Niclosamide], the I-TPC2 result in test [1] is “No activation”.

As for `CC(C[N+](C)(C)C)OC(N)=O` (centres unmarked) [Bethanechol chloride], the I-TPC2 entry in test [1] was “No activation”.

For `C#CCOC(=O)C1=CCCN(C)C1` [Arecaidine propargyl ester], in test [1], the I-TPC2 result is “No activation”.

Consider `C[C@@H]1O[C@H](C[N+](C)(C)C)C[C@H]1O` [Muscarine], for which the I-TPC2 entry in test [1] is “No activation”.

Consider `CN(C)CCCN1c2ccccc2Sc2ccc(Cl)cc21` [LyNa-VA2.1/chlorpromazine], for which, in test [2] (individual recording), the “Whole endo-lysosomal TPC2 current activated by LyNa-VAs, Test 1” value stood at 1013.4; the “Whole endo-lysosomal TPC2 current activated by LyNa-VAs, Test 2” value is 2019.9; the “Whole endo-lysosomal TPC2 current activated by LyNa-VAs, Test 3” value came to 268.2. In addition, the “Whole endo-lysosomal TPC2 current activated by LyNa-VAs, mean” value in test [2] came to 1100.5.

`CCCNCC(O)COc1ccccc1C(=O)CCc1ccccc1` (centres unmarked) [Propafenone]: the I-TPC2 result in test [1] is recorded as “No activation”.

Take `CN(C)CCCN1c2ccccc2Sc2ccc(C(F)(F)F)cc21` [LyNa-VA2.2/triflupromazine]: in test [2] (individual recording), the “Whole endo-lysosomal TPC2 current activated by LyNa-VAs, Test 1” value is listed as 1572; the “Whole endo-lysosomal TPC2 current activated by LyNa-VAs, Test 2” value is 698; the “Whole endo-lysosomal TPC2 current activated by LyNa-VAs, Test 3” value is 681.2. In addition, in test [2], the “Whole endo-lysosomal TPC2 current activated by LyNa-VAs, mean” value was determined as 983.7.

`CN1Cc2c(N)cccc2C(c2ccccc2)C1` (centres unmarked) [Nomifensine maleate]: the I-TPC2 result in test [1] is on record as “No activation”.

Regarding `CNCCC=C1c2ccccc2CCc2ccccc21` [LyNa-VA1.5/nortriptyline], in test [2] (individual recording), the “Whole endo-lysosomal TPC2 current activated by LyNa-VAs, Test 1” value is listed as 1814.6; the “Whole endo-lysosomal TPC2 current activated by LyNa-VAs, Test 2” value amounted to 1075.1; the “Whole endo-lysosomal TPC2 current activated by LyNa-VAs, Test 3” value came out at 1937.9. For the same molecule, the “Whole endo-lysosomal TPC2 current activated by LyNa-VAs, Test 4” value in test [2] (individual recording, Test 4) is given as 2836.3. The “Whole endo-lysosomal TPC2 current activated by LyNa-VAs, mean” value in test [2] is listed as 1916.0.

On to `CCN(CC)CCCC(C)Nc1c2ccc(Cl)cc2nc2ccc(OC)cc12` (centres unmarked) [Quinacrine dihydrochloride dihydrate], for which the I-TPC2 entry in test [1] is on record as “No activation”.

For the molecule `CN(C)C(=O)C(CCN1CCC(O)(c2ccc(Cl)cc2)CC1)(c1ccccc1)c1ccccc1` [Loperamide], the I-TPC2 entry in test [1] is recorded as “No activation”.

Regarding `CN(C)CCC=C1c2ccccc2CCc2ccccc21` [Amitriptyline hydrochloride], in test [1], the I-TPC2 was ~1000 pA.

On to `CN(C)c1cc2c(Nc3ccc4c(cnn4Cc4ccccc4)c3)ncnc2cn1`, for which the I-TPC2 entry in test [1] is given as “No activation”.

For the molecule `N#C/C(=C\c1ccc(O)c(O)c1)C(=O)NCc1ccccc1` [Tyrphostin B42], the I-TPC2 entry in test [1] was “No activation”.

As to `CNCCCC1c2ccccc2C=Cc2ccccc21` [Protriptyline hydrochloride], in test [1], the I-TPC2 is on record as ~1000 pA.

Regarding `COC(=O)C1=CCCN(C)C1` [Arecoline], the I-TPC2 result in test [1] is reported as “No activation”.

In the case of `N=C(N)NC(=O)Cc1c(Cl)cccc1Cl` [Guanfacine hydrochloride], in test [1], the I-TPC2 entry is on record as “No activation”.

For `CC(=O)NBr` [n-Bromoacetamide], the I-TPC2 entry in test [1] was “No activation”.

Turning to `C[N+](C)(C)CCOC(N)=O` [Carbachol], the I-TPC2 result in test [1] is listed as “No activation”.

Regarding `CC(C)(C)c1cc(/C=C(\C#N)C(N)=S)cc(C(C)(C)C)c1O` [Tyrphostin AG 879], the I-TPC2 entry in test [1] is recorded as “No activation”.
